Test results from patent publication US6475491B1, “Treatment of HIV and other viral infections using combinatorial therapy” (priority 1995, dated 2002).
In brackets after ≈: the same amount, converted by molar mass. Entries after “also recorded” stand apart in the source; their conditions may differ. Where two headings read alike, the source gives them in different places.

What was measured:
HIV-1 [1] = details: cited from earlier work
HIV-1 [2] = details: cited from earlier work; remark: listed apart in the source
HIV-1IIIb [3] = system: HIV-1IIIb
Description: (§6) The results of these assays are analyzed using Chou and Talalay's combination method (Chou and Talalay, 1984, Adv. Enzyme Regul. 22:27-55) and ‘Dose-Effect Analysis with Microcomputers’ software (Chou and Chou, 1987, software and manual. p19-64. Elsevier Biosoft, Cambridge, UK) in order to obtain a Combination Index. Combination Index values <1 indicates synergy, values>1 indicate antagonism and values equal to 1 indicate additive effects.
(§7) For this assay, 3×10^4 uninfected Molt4 cells are cocultivated with 3×10^3 H9/ LA1 or CEM/LA1 chronically infected cells per well in 24 well plates. Inhibitors are added on day 0, and the assay plates are re-fed on days 1 and 3 with growth medium containing the inhibitors. The assay is harvested on day 5. Antiviral activity is measured by several parameters: Western blot analysis of pelleted cells from treated cultures, RT levels, and p24 antigen levels in the supernatant.
(§8) The combined drug effects are calculated by the multiple drug analysis method of Chou and Talalay (Chou and Talalay, 1984, Adv. Enzyme Regul. 22:27-55) and ‘Dose-Effect Analysis with Microcomputers’ software (Chou and Chou, 1987, software and manual. p19-64. Elsevier Biosoft, Cambridge, UK) using the equation: [formula]
(§9) where CI is the combination index, (Dx)1 is the dose of drug 1 required to produce x percent effect alone, (D)1 is the dose of drug 1 required to produce the same x percent effect in combination with (D)2. The values of (Dx)2 and (D)2 are similarly derived from drug 2. The value of α is determined from the plot of the dose effect curve using the median effect equation:
(§10) where fa is the fraction affected by dose D, fu is the uninfected fraction, Dm is the dose required for 50% effect and m is the slope of the dose-effect curve. […] If the agents are mutually exclusive α is 0. and if they are mutually nonexclusive, α is 1. […] CI values of <1 indicate synergy, values>1 indicate antagonism and values equal to 1 indicate additive effects.

HIV-1IIIb [4] = assay: Combination indices from in vitro HIV-1IIIb/CEM co-culture (Chou and Talalay)
Description: as §6, §7, §8, §9, §10

HIV-1LA1 [5] = details: control peptides; cited from earlier work
[6] = Toxicity in in vitro studies and in animals
Description: The present invention provides the first reported use of such peptides in combination with another antiviral or any other therapeutic agent.

HIV-1LA1 [7] = assay: Cell fusion assay: syncytia formation, uninfected Molt4 cells co-cultivated with chronically HIV-1 infected CEM cells; type: cell-based
Description: A cell fusion assay may be utilized to test the peptides' ability to inhibit HIV-induced syncytia formation in vitro. Such an assay may comprise culturing uninfected CD-4^+ cells (such as Molt or CEM cells, for example) in the presence of chronically HIV-infected cells and a therapeutic agent to be assayed. For each combinational therapy, a range of concentrations may be tested. […] Standard conditions for culturing, well known to those of ordinary skill in the art, are used. After incubation for an appropriate period (24 hours at 37° C., for example) the culture is examined microscopically for the presence of multinucleated giant cells, which are indicative of cell fusion and syncytia formation.
Approximately 7×10^4 Molt cells were incubated with 1×10^4CEM cells chronically infected with the HIV-1LA1 virus in 96-well plates (one-half area cluster plates; Costar, Cambridge, Mass.) in a final volume of 100 μl culture medium as previously described (Matthews, T. J. et al., 1987, Proc. Natl. Acad. Sci. USA 84: 5424-5428). Peptide inhibitors were added in a volume of 10 μl and the cell mixtures were incubated for 24 hr. at 37° C. At that time, multinucleated giant cells were estimated by microscopic examination at a 40×magnification which allowed visualization of the entire well in a single field.
The initial screen for antiviral activity assayed peptides' ability to block syncytium formation induced by overnight co-cultivation of uninfected Molt4 cells with chronically HIV-1 infected CEM cells. […] For these experiments, CEM cells chronically infected with either HIV-1LA1, HIV-1MN, HIV-1RF, or HIV-1SF2 virus were cocultivated overnight with uninfected Molt 4 cells.

HIV-1MN = assay: Cell fusion assay: syncytia formation, Molt4 cells with chronically infected CEM cells; type: cell-based; details: HIV-1MN infected CEM cells
Description: (§1) The results of several such experiments are presented herein.

HIV-1RF = assay: as above; type: cell-based; details: HIV-1RF infected CEM cells
Description: as §1

HIV-1SF2 = assay: as above; type: cell-based; details: HIV-1SF2 infected CEM cells
Description: as §1

HIV-2 = assay: Cell fusion assay: HIV-2 mediated syncytia formation; type: cell-based; details: comparison HIV-1 / HIV-2, same cell type
HIV-1LA1 [8] = system: HIV-1LA1
Description: (§2) The resulting reverse transcriptase (RT) activity in counts per minute was determined using the assay described, below, in Section 6.1.5. See, Reed, L. J. et al., 1938, Am. J. Hyg. 27: 493-497 for an explanation of TCID50 calculations.
(§3) The micro-reverse transcriptase (RT) assay was adapted from Goff et al. (Goff, S. et al., 1981, J. Virol. 38:239-248) and Willey et al. (Willey, R. et al., 1988, J. Virol. 62:139-147). Supernatants from virus/cell cultures are adjusted to 1% Triton-X100. A 10 μl sample of supernatant was added to 50 μl of RT cocktail in a 96-well U-bottom microtitre plate and the samples incubated at 37° C. for 90 min. The RT cocktail contained 75 mM KCl, 2 mM dithiothreitol, 5 mM MgCl2, 5 μg/ml poly A (Pharmacia, cat. No. 27-4110-01), 0.25 units/ml oligo dT (Pharmacia, cat. No. 27-7858-01), 0.05% NP40, 50 mM Tris-HCl, pH 7.8, 0.5 μM non-radioactive dTTP, and 10 μCi/ml ^32P-dTTP (Amersham, cat. No. PB.10167).
After the incubation period, 40 μl of reaction mixture was applied to a Schleicher and Schuell (S+S) NA45 membrane (or DE81 paper) saturated in 2×SSC buffer (0.3 M NaCl and […] sodium citrate) held in a S+S Minifold over one sheet of GB003 (S+S) filter paper, with partial vacuum applied. Each well of the minifold was washed four times with 200 μl 2×SSC, under full vacuum. The membrane was removed from the minifold and washed 2 more times in a pyrex dish with an excess of 2×SSC. Finally, the membrane was drained on absorbent paper, placed on Whatman #3 paper, covered with Saran wrap, and exposed to film overnight at −70° C.
After 7 days of culture, cell-free supernatant was tested for the presence of RT activity as a measure of successful infection.

HIV-2NIHZ = assay: Cell free virus infection assay, CEM cells, reverse transcriptase readout; type: cell-based; details: 25 TCID50 HIV-2NIHZ, 7 days
Description: as §2, §3
After the incubation period, 40 μl of reaction mixture was applied to a Schleicher and Schuell (S+S) NA45 membrane (or DE81 paper) saturated in 2×SSC buffer (0.3 M NaCl and […] sodium citrate) held in a S+S Minifold over one sheet of GB003 (S+S) filter paper, with partial vacuum applied. Each well of the minifold was washed four times with 200 μl 2×SSC, under full vacuum. […]

HIV-1/IIIb = type: cell-based; details: 5 h
Description: Anti-HIV assays: The antiviral assays performed were as those described, above, in Section 6.1. Assays utilized HIV-1/IIIb and/or HIV-2 NIHZ isolates. Purified peptides were used, unless otherwise noted in FIGS. 5A-5L.

[9] = Cell proliferation and toxicity assay; type: cell-based; details: human, CEM cells
Description: (§4) Cell proliferation and toxicity assay: Approximately 3.8×10^5 CEM cells for each peptide concentration were incubated for 3 days at 37° C. in T25 flasks. […] The concentrations of each peptide used were 0, 2.5, 10, and 40 μg/ml. Cell counts were taken at incubation times of 0, 24, 48, and 72 hours.
(§5) Additionally, cells were incubated in the absence of either peptide.

CEM cells = assay: Cell proliferation and toxicity assay; type: cell-based
Description: as §4, §5

CC(C)c1nc(CN(C)C(=O)N[C@H](C(=O)N[C@@H](Cc2ccccc2)C[C@H](O)[C@H](Cc2ccccc2)NC(=O)OCc2cncs2)C(C)C)cs1 [ABT-538]
antiviral activity in vitro (HIV-1 [1]): potent antiviral activity | CD4 lymphocyte counts (HIV-1 [2]; AIDS patients): rise substantially | plasma HIV-1 levels (HIV-1 [2]; AIDS patients): decrease exponentially | pharmacokinetic and safety profiles in vivo (HIV-1 [2]; human, in vivo): favorable pharmokinetic and safety profiles

Cc1cn([C@H]2C[C@H](N=[N+]=[N-])[C@@H](CO)O2)c(=O)[nH]c1=O [AZT, 3′-azido-2′,3′-dideoxythymidine]
EC50 (HIV-1IIIb [3]): 13.1 µg/mL (≈ 49.2 µM)

CC(C)(C)NC(=O)[C@@H]1CN(Cc2cccnc2)CCN1C[C@@H](O)C[C@@H](Cc1ccccc1)C(=O)N[C@H]1c2ccccc2C[C@H]1O [Indinavir]
EC50 (HIV-1IIIb [3]): 0.0276 µg/mL (≈ 0.045 µM)

Cc1c(O)cccc1C(=O)N[C@@H](CSc1ccccc1)[C@H](O)CN1C[C@H]2CCCC[C@H]2C[C@H]1C(=O)NC(C)(C)C [Nelfinavir, reference compound]
EC50 (HIV-1IIIb [3]): 0.00927 µg/mL (≈ 0.0163 µM) | EC50 (HIV-1IIIb [4]; Human immunodeficiency virus 1, read-out: Dm Drug #2 (dose required for 50% effect)): 0.0609 µg/mL

Nc1ccn([C@@H]2CS[C@H](CO)O2)c(=O)n1 [Peptide 3TC, reference compound]
EC50 (HIV-1IIIb [3]): 0.0748 µg/mL (≈ 0.326 µM) | Dm Drug #2 (dose required for 50% effect) (HIV-1IIIb [4]; experiments T20:3TC 2:1, T20:Nelfinavir 5:1): 63.73 ng/mL

Ac-LQARILAVERYLKDQQQ-NH2 (N-terminus and C-terminus assumed) [DP-116]
activity previously shown in the cell-free virus infection assay (HIV-1LA1 [5]): inactive; also recorded: ineffective as a HIV inhibitor; also recorded: negative for inhibition of HIV-1 infection

Ac-NNLLRAIEAQQHLLQLTVWGIKQLQARILAVERYLKDQ-NH2 [DP-107]
toxicity in in vitro studies and in animals [6]: non-toxic

DP-180: control peptide incorporating the amino acid residues of DP-178 in a scrambled sequence (SSESFTLLEQWNNWKLQLAEQWLEQINEKHYLEDIS; Human immunodeficiency virus) [reference compound]
concentration with no evidence of anti-fusogenic activity (HIV-1LA1 [7]; high concentration tested): > 40 µg/mL

Enfuvirtide
selectivity as inhibitor of HIV-1-mediated over HIV-2 mediated cell fusion (HIV-1LA1 [7]): 4 log | concentration affording complete protection against syncytium formation (lowest concentration tested) (HIV-1LA1 [7]; HIVLA1 infected CEM cells, overnight co-cultivation): ≤ 12.5 ng/mL | lowest effective inhibitory concentration completely blocking virus induced syncytia formation (HIV-1LA1 [7]; Molt4 + chronically infected CEM cells, 24 hr): 1 to 10 ng/mL | peptide concentration blocking HIV-1-mediated syncytia formation (HIV-1LA1 [7]; comparison HIV-1 / HIV-2): below 1 ng/ml | concentration affording complete protection against syncytium formation (lowest concentration used) (HIV-1MN): ≤ 100 ng/mL | concentration affording complete protection against syncytium formation (lowest concentration used) (HIV-1RF): ≤ 100 ng/mL | concentration affording complete protection against syncytium formation (lowest concentration used) (HIV-1SF2): ≤ 100 ng/mL | concentration failing to block HIV-2 mediated syncytia formation (HIV-2): > 10 µg/mL | IC50, inhibition of HIV-1 infection (HIV-1LA1 [8]; 62 TCID50 HIV-1LA1, CEM cells, 7 days): about 3 ng/ml | IC50, inhibition of RT production from infected cells (HIV-1LA1 [8]; 247 TCID50 HIV-1LA1, CEM cells, 7 days): 0.09 µg/mL | potency as HIV-1 inhibitor relative to HIV-2 inhibitor (HIV-1LA1 [8]; HIV-1LA1 vs HIV-2NIHZ, cell-free infection): two logs more potent | IC50 for HIV-2NIHZ (HIV-2NIHZ): much higher IC50 | Dm T20 (dose required for 50% effect) (HIV-1IIIb [4]; experiment T20:3TC 1:1.5): 158.87 ng/mL | Dm T20 (dose required for 50% effect) (HIV-1IIIb [4]; experiment T20:3TC 2:1): 298.50 ng/mL | Dm T20 (dose required for 50% effect) (HIV-1IIIb [4]; experiment T20:Indinavir 10:1): 298.50 ng/mL | Dm T20 (dose required for 50% effect) (HIV-1IIIb [4]; experiment T20:Nelfinavir 1.33:1): 172.02 ng/mL | Dm T20 (dose required for 50% effect) (HIV-1IIIb [4]; experiment T20:Nelfinavir 5:1): 298.50 ng/mL | Dm T20 (dose required for 50% effect) (HIV-1IIIb [4]; experiment T:20:AZT 1:10): 298.50 ng/mL

H-YTSLIHSLIEESQNQQEK-OH [Peptide T-4]
IC50, antiviral activity (HIV-1/IIIb): > 400 µg/mL

enfuvirtide
viability at 0 h, 2.5 µg/mL ([9]; 2.5 μg/ml, 0 hours): 98% | viability at 24 h, 2.5 µg/mL ([9]; 2.5 μg/ml, 24 hours): 93% | viability at 48 h, 2.5 µg/mL ([9]; 2.5 μg/ml, 48 hours): 96% | viability at 72 h, 2.5 µg/mL ([9]; 2.5 μg/ml, 72 hours): 96% | viability at 0 h, 10 µg/mL ([9]; 10 μg/ml, 0 hours): 98% | viability at 24 h, 10 µg/mL ([9]; 10 μg/ml, 24 hours): 97% | viability at 48 h, 10 µg/mL ([9]; 10 μg/ml, 48 hours): 98% | viability at 72 h, 10 µg/mL ([9]; 10 μg/ml, 72 hours): 98% | viability at 0 h, 40 µg/mL ([9]; 40 μg/ml, 0 hours): 98% | viability at 24 h, 40 µg/mL ([9]; 40 μg/ml, 24 hours): 97% | viability at 48 h, 40 µg/mL ([9]; 40 μg/ml, 48 hours): 95% | viability at 72 h, 40 µg/mL ([9]; 40 μg/ml, 72 hours): 97% | non-cytotoxic peptide concentration relative to HIV inhibitory dose (CEM cells): greater than 3 log | concentration non-cytotoxic to cells in culture (highest tested) (CEM cells; CEM cells, 3 days): > 40000 ng/mL | cytotoxic effects on cells in culture (CEM cells; CEM cells, up to 40 μg/ml, 3 days): no cytotoxic effects | toxicity in in vitro studies and in animals [6]: non-toxic
